Each compound was assayed on HCT 116 cells (assay: Viability assay in HCT 116 cells (CellTiter-Glo)). Details: 120 h; HCT 116 human colon carcinoma cells, 5 days incubation.
Type: cell-based
Method: Viability Assay in HCT 116 Cells
A viability assay was performed using the CellTiter-Glo® Luminescent Cell Viability Assay (see Promega Corporation's Technical Bulletin No. 288, pp. 1-11 [revised February, 2004] which is hereby incorporated by reference in its entirety). This assay is a homogeneous method of determining the number of viable cells in culture based on quantitation of the ATP present, an indicator of metabolically active cells. The assay is designed for use with multiwell formats, making it ideal for automated high-throughput screening (HTS), cell proliferation and cytotoxicity assays. The homogeneous assay procedure involves adding a single reagent (containing luciferase, luciferan substrate, and buffer) directly to cells cultured in serum-supplemented medium. Cell washing, removal of medium and multiple pipetting steps are not required. The system detects as few as 15 cells/well in a 384-well format in 10 minutes after adding reagent and mixing.
The homogeneous “add-mix-measure” format results in cell lysis and generation of a luminescent signal proportional to the amount of ATP present. The amount of ATP is directly proportional to the number of cells present in culture. The above-referenced assay generates a “glow-type” luminescent signal, produced by the luciferase reaction, which has a half-life generally greater than five hours, depending on cell type and medium used. The extended half-life eliminates the need to use reagent injectors and provides flexibility for continuous or batch mode processing of multiple plates. The unique homogeneous format avoids errors that may be introduced by other ATP measurement methods that require multiple steps.
HCT 116 cells (human colon carcinoma, ATCC-No. CCl-247) were cultivated in RPMI 1640 medium with GlutaMAX™ I (cell culture media that contains L-Alanyl-L-Glutamine [a stabilized form/source of L-Glutamine] from Invitrogen, Cat-No. 61870-010), 5% Fetal Calf Serum (FCS, Sigma Cat-No. F4135 (FBS)); 100 Units/ml penicillin/100 μg/ml streptomycin (=Pen/Strep from Invitrogen Cat. No. 15140). For the assay the cells were seeded in 384 well plates, 1000 cells per well, in the same medium. The next day the test compounds were added in various concentrations ranging from 30 μM to 0.0015 μM (10 concentrations, 1:3 diluted). After 5 days the viability assay was performed according to the instructions of the manufacturer. In brief: the cell-plate was equilibrated to room temperature for approximately 30 minutes and then the CellTiter-Glo™ reagent (which contains luciferase, luciferan substrate, and buffer) was added. The contents were carefully mixed for 15 minutes to induce cell lysis. After 45 minutes the luminescent signal was measured in Victor 2, (scanning multiwell spectrophotometer, Wallac).
1st. Day: • Medium: RPMI 1640 with GlutaMAX™ I (Invitrogen, Cat-No. 61870), 5% FCS (Sigma Cat.-No. F4135), Pen/Strep (Invitrogen, Cat No. 15140). • HCT116 (ATCC-No. CCl-247): 1000 cells in 60 μl per well of 384 well plate (Greiner 781098, μClear-plate white) • After seeding incubate plates 24 h at 37° C., 5% CO2 2nd. Day: Induction (Treatment with Compounds, 10 Concentrations):
In order to achieve a final concentration of 30 μM as highest concentration 3.5 μl of 10 mM compound stock solution were added directly to 163 μl media. Then step e) of the dilution procedure described below, was followed.
In order to achieve the second highest to the lowest concentrations, a serial dilution with dilution steps of 1:3 was followed according to the procedure (a-e) as described here below: a) for the second highest concentration add 10 μl of 10 mM stock solution of compound to 20 μl dimethylsulfoxide (DMSO) b) dilute 8×1:3 (always 10 μl to 20 μl DMSO) in this DMSO dilution row (results in 9 wells with concentrations from 3333.3 μM to 0.51 μM) c) dilute each concentration 1:47.6 (3.5 μl compound dilution to 163 μl media) […]

With Cc1cc(Nc2cc3ccccc3c(Oc3ccccc3)n2)n[nH]1 [Example 11, (5-Methyl-1H-pyrazol-3-yl)-(1-phenoxy-isoquinolin-3-yl)-amine] as the compound, how does the IC50 read?
Its IC50 is 1.83 µM.

Cc1cc(Nc2cc3ccccc3c(OCc3ccccc3)n2)n[nH]1 [Example 12, (1-Benzyloxy-isoquinolin-3-yl)-(5-methyl-1H-pyrazol-3-yl)-amine] was tested. Which IC50 did it give?
The IC50 was 3.32 µM.

With Cc1cc(Nc2cc3ccccc3c(Oc3ccc(Cl)cc3)n2)n[nH]1 [Example 16, [1-(4-Chloro-phenoxy)-isoquinolin-3-yl]-(5-methyl-1H-pyrazol-3-yl)-amine] as the compound, how does the IC50 read?
Its IC50 is 1.93 µM.

Which IC50 does the source give for Cc1cc(Nc2cc3ccccc3c(Oc3ccccc3C)n2)n[nH]1 [Example 21, (5-Methyl-1H-pyrazol-3-yl)-(1-o-tolyloxy-isoquinolin-3-yl)-amine] here?
Its IC50 is 5.67 µM.

How did the IC50 turn out when Cc1cc(Nc2cc3ccccc3c(Oc3cccc(C#N)c3)n2)n[nH]1 [Example 28, 3-[3-(5-Methyl-1H-pyrazol-3-ylamino)-isoquinolin-1-yloxy]-benzonitrile] was run?
The IC50 was 0.999 µM.

With Cc1cc(Nc2cc3ccccc3c(OC3CCCCC3)n2)n[nH]1 [Example 33, (1-Cyclohexyloxy-isoquinolin-3-yl)-(5-methyl-1H-pyrazol-3-yl)-amine] as the compound, how does the IC50 read?
The IC50 was 3.24 µM.

COc1ccc2c(Oc3ccc(C#N)cc3)nc(Nc3cc(C)[nH]n3)cc2c1 [Example 39, 4-[3-(5-Methyl-1H-pyrazol-3-ylamino)-6-methoxy-isoquinolin-1-yloxy]-benzonitrile] was tested. Which IC50 did it give?
Its IC50 is 1.38 µM.

With COc1ccc2c(OCCN3CCOCC3)nc(Nc3cc(C)[nH]n3)cc2c1 [Example 53, (5-Methyl-1H-pyrazol-3-yl)-[1-(2-morpholin-4-yl-ethoxy)-6-methoxy-isoquinolin-3-yl]-amine] as the compound, how does the IC50 read?
Its IC50 is 3.5 µM.

With COc1ccc2c(OC(C)C)nc(Nc3cc(C)[nH]n3)cc2c1 [Example 56, (1-Isopropoxy-6-methoxy-isoquinolin-3-yl)-(5-methyl-1H-pyrazol-3-yl)-amine] as the compound, how does the IC50 read?
The IC50 was 0.636 µM.

With COc1cccc2c(Oc3ccc(C)cc3)nc(Nc3cc(C)[nH]n3)cc12 [Example 67, (5-Methyl-1H-pyrazol-3-yl)-(1-p-tolyloxy-5-methoxy-isoquinolin-3-yl)-amine] as the compound, how does the IC50 read?
Its IC50 is 1.37 µM.

COc1ccc2cc(Nc3cc(C)[nH]n3)nc(Oc3ccc(Cl)cc3)c2c1 [Example 77, [1-(4-Chloro-phenoxy)-7-methoxy-isoquinolin-3-yl]-(5-methyl-1H-pyrazol-3-yl)-amine] was tested. Which IC50 did it give?
The IC50 was 1.94 µM.

How did the IC50 turn out when COc1ccc2c(Oc3ccc(F)cc3)nc(Nc3cc(C)[nH]n3)cc2c1OC [Example 94, [1-(4-Fluoro-phenoxy)-5,6-dimethoxy-isoquinolin-3-yl]-(5-methyl-1H-pyrazol-3-yl)-amine] was run?
Its IC50 is 2.54 µM.

Which IC50 does the source give for COc1cc2cc(Nc3cc(C)[nH]n3)nc(OC3CCC3)c2cc1OC [Example 125, (1-Cyclobutoxy-6,7-dimethoxy-isoquinolin-3-yl)-(5-methyl-1H-pyrazol-3-yl)-amine] here?
Its IC50 is 0.51 µM.

Which IC50 does the source give for Cc1cc(Nc2cc3ccccc3c(-c3ccccc3)n2)n[nH]1 [Example 131, (5-Methyl-1H-pyrazol-3-yl)-(1-phenyl-isoquinolin-3-yl)-amine] here?
Its IC50 is 3.93 µM.

How did the IC50 turn out when Cc1cc(Nc2cc3ccccc3c(-c3ccc(Cl)cc3)n2)n[nH]1 [Example 140, [1-(4-Chloro-phenyl)-isoquinolin-3-yl]-(5-methyl-1H-pyrazol-3-yl)-amine] was run?
The IC50 was 2.61 µM.

How did the IC50 turn out when Cc1cc(Nc2cc3ccccc3c(-c3csc4ccccc34)n2)n[nH]1 [Example 159, (1-Benzo[b]thiophen-3-yl-isoquinolin-3-yl)-(5-methyl-1H-pyrazol-3-yl)-amine] was run?
Its IC50 is 1.9 µM.

For Cc1cc(Nc2cc3ccccc3c(-c3cnn(C)c3)n2)n[nH]1 [Example 164, (5-Methyl-1H-pyrazol-3-yl)-[1-(1-methyl-1H-pyrazol-4-yl)-isoquinolin-3-yl]-amine], which IC50 is on record?
Its IC50 is 5.31 µM.

How did the IC50 turn out when COc1ccc2c(-c3cn[nH]c3)nc(Nc3cc(C)[nH]n3)cc2c1 [Example 194, (5-Methyl-1H-pyrazol-3-yl)-[1-(1H-pyrazol-4-yl)-6-methoxy-isoquinolin-3-yl]-amine] was run?
Its IC50 is 3.44 µM.

For COc1cccc2c(-c3ccccc3)nc(Nc3cc(C)[nH]n3)cc12 [Example 202, (5-Methoxy-1-phenyl-isoquinolin-3-yl)-(5-methyl-1H-pyrazol-3-yl)-amine], which IC50 is on record?
Its IC50 is 1.41 µM.

For FC(F)(F)c1ccc(-c2nc(Nc3cc[nH]n3)cc3ccccc23)cc1 [Example 220, (1H-Pyrazol-3-yl)-[1-(4-trifluoromethyl-phenyl)-isoquinolin-3-yl]-amine], which IC50 is on record?
The IC50 was 3.17 µM.

COc1ccc2c(-c3ccc(C(C)=O)cc3)nc(Nc3cc[nH]n3)cc2c1 [Example 252, 1-{4-[6-Methoxy-3-(1H-pyrazol-3-ylamino)-isoquinolin-1-yl]-phenyl}-ethanone] was tested. Which IC50 did it give?
Its IC50 is 3.87 µM.

COc1ccc2c(-c3ccc(C)cc3)nc(Nc3cc[nH]n3)cc2c1 [Example 263, (6-Methoxy-1-p-tolyl-isoquinolin-3-yl)-(1H-pyrazol-3-yl)-amine] was tested. Which IC50 did it give?
Its IC50 is 1.54 µM.

COc1ccc2c(Nc3ccncc3)nc(Nc3cc(C)[nH]n3)cc2c1 [Example 288, 6-Methoxy-N^3-(5-methyl-1H-pyrazol-3-yl)-N^1-pyridin-4-yl-isoquinoline-1,3-diamine] was tested. Which IC50 did it give?
Its IC50 is 1.29 µM.

How did the IC50 turn out when Cc1cc(Nc2cc3ccccc3c(Nc3cccc(Cl)c3)n2)n[nH]1 [Example 294, N^1-(3-Chloro-phenyl)-N^3-(5-methyl-1H-pyrazol-3-yl)-isoquinoline-1,3-diamine] was run?
Its IC50 is 1.79 µM.

For COc1cccc(-c2nc(Nc3cc(C)[nH]n3)cc3cc(OCCN4CCOCC4)ccc23)c1 [Example 300, [1-(3-Methoxy-phenyl)-6-(2-morpholin-4-yl-ethoxy)-isoquinolin-3-yl]-(5-methyl-1H-pyrazol-3-yl)-amine], which IC50 is on record?
Its IC50 is 1.53 µM.

Which IC50 does the source give for COCCCNC(=O)c1ccc2c(-c3ccc(F)cc3F)nc(Nc3cc(C)[nH]n3)cc2c1 [Example 302, 1-(2,4-Difluoro-phenyl)-3-(5-methyl-1H-pyrazol-3-ylamino)-isoquinoline-6-carboxylic acid (3-methoxy-propyl)-amide] here?
The IC50 was 3.07 µM.

For COc1cccc(Sc2nc(Nc3cc(C)[nH]n3)cc3ccccc23)c1 [Example 306, [1-(3-Methoxy-phenylsulfanyl)-isoquinolin-3-yl]-(5-methyl-1H-pyrazol-3-yl)-amine], which IC50 is on record?
The IC50 was 1.57 µM.

Which IC50 does the source give for Cc1cc(Nc2cc3ccccc3c(Sc3ccc(F)cc3)n2)n[nH]1 [Example 312, [1-(4-Fluoro-phenylsulfanyl)-isoquinolin-3-yl]-(5-methyl-1H-pyrazol-3-yl)-amine] here?
The IC50 was 3.76 µM.

COc1ccc2c(C(=O)NCC3CC3)nc(Nc3cc(C)[nH]n3)cc2c1 [Example 318, 6-Methoxy-3-(5-methyl-1H-pyrazol-3-ylamino)-isoquinoline-1-carboxylic acid cyclopropylmethyl-amide] was tested. Which IC50 did it give?
Its IC50 is 3.11 µM.
